According to patent publication US11964946B1, “4,5-bis(4-methoxyphenyl)-1-hexyl-2-(4-nitrophenyl)-1H-imidazole as an antimicrobial compound” (KING FAISAL UNIVERSITY, priority 2023, dated 2024):

Assays:
Assay in all cases: Antimicrobial screening, agar dilution method
Type in all cases: cell-based
Conditions in all cases: after 10, 20, 40 and 60 minutes at all dilutions 1:100, 1:200, 1:400, 1:800
Pseudomonas aeruginosa = tested on: Pseudomonas aeruginosa
Procedure: (§1) The antimicrobial properties of the 4,5-bis(4-methoxyphenyl)-1-hexyl-2-(4-nitrophenyl)-1H-imidazole was studied by the method of agar dilution. Test solutions of each compound was prepared in concentration of 1% using dimethylformamide as a solvent then they were diluted in physiological solution to obtain the final experimental dilutions 1:100, 1:200, 1:400, 1:800. The effect of these substances were compared with furacillin in a controlled study. The testing microbes used were gram positive bacteria Staphylococcus aureus, gram negative bacteria Pseudomonas aeruginosa and Escherichia coli and Candida albicans fungi were taken. The experiments used for this survey were meat-pentonlu agar (EPA) for cultivation of bacteria and Saburo environment for fungi. Each experiment used 1 ml of test solution on each plate 500 min. Add 2 drops of emulsified with microbes feel. All experimental samples were taken from the agar after 10, 20, 40, 60 minutes in the environment on the basis of Patrk planted. Bacteria were cultivated at a temperature of 37° C. for 1 day and the mushroom was kept in a thermostat for […] at a temperature of 28° C. Then results were checked.

Candida albicans = tested on: Candida albicans
Procedure: as §1

Escherichia coli = tested on: Escherichia coli
Procedure: as §1

Staphylococcus aureus = tested on: Staphylococcus aureus
Procedure: as §1

Measured: inhibition activity (in words)

CCCCCCn1c(-c2ccc(OC)c(OC)c2)nc(-c2ccc(Br)cc2)c1-c1ccc(Br)cc1 [4,5-bis(4-bromophenyl)-1-hexyl-2-(3,4-dimethoxyphenyl)-1H-imidazole]
highest inhibition activity: Pseudomonas aeruginosa | Candida albicans | Escherichia coli | Staphylococcus aureus
